The record followed here is patent US20240327364A1, “THERAPEUTIC TARGETING OF GPR68 TO INDUCE FERROPTOSIS” (University Of Maryland, Baltimore, priority 2023, published 2024).

One experiment addresses CIT (Homo sapiens, UniProt O14578). Kind of experiment: KinomeScan. It is filed as binding. Particulars: read-out: % Control.
The target in the next experiment is T1, EGFR(E746-A750del) (Homo sapiens, UniProt P00533, DEL746-750).
T1 construct: purchased DiscoveRx (Fremont, CA), KinomeScan service
The experiment is described as follows: KinomeScan. Particulars: read-out: % Control. It is filed as binding.

The next experiment has as its target T2, EGFR(S752-1759del) (Homo sapiens, UniProt P00533, DEL752-759).
T2 construct: purchased DiscoveRx (Fremont, CA)
Kind of experiment: KinomeScan. It is filed as binding. Particulars: read-out: % Control.

Another experiment has as its target T3, GRK4 (Homo sapiens, UniProt P32298).
T3 construct: purchased DiscoveRx (Fremont, CA)
Kind of experiment: KinomeScan. Particulars: read-out: % Control. It is filed as binding.

A further experiment has as its target T4, CB1 (Homo sapiens, UniProt P21554).
T4 construct: host or cells: Chem-1 cells with promiscuous Gα15
The experiment is described as follows: GPCR Profiler. It is filed as cell-based.

Another experiment addresses T5, D4 (Homo sapiens, UniProt P21917).
T5 construct: host or cells: Chem-1 cells expressing Gα15
The experiment is described as follows: GPCR Profiler. It is filed as cell-based.

The test system of the next experiment is WM-115. Kind of experiment: Cell Titer-Glo viability, Melanoma. It is filed as cell-based. Here is the method:
OGM2 kills wide variety of cancer cell types. Cell sensitivity can be classified in to Very Sensitive (LC50<2 μM), Sensitive (LC50=2 to 10 μM), Mildly Sensitive (LC50>10 μM), and Refractory (no killing at 10 μM). The listed established cell were incubated with OGM2 at 2 μM or 10 μM for 72 hours under standard cell culture conditions, and relative cell number was assessed using Cell Titer-Glo Luminescent Cell Viability Assay (Promega™) following the manufacturer's instructions. Luminescence was determined using a Cytation 5 reader and Gen5 software package (BioTek™).
Cancer cells, which are very sensitive to killing by OGM2 (LCs <2 μM), with reported mRNA expression of GPR68 and the related proton sensing receptor GPR4. LC50's (concentrations causing 50% lethality) were determined using CellTiter-Glo (Promega™, G7570). Cells were plated in 12-well plates (CELLTREAT Scientific Products, 229112) in 1 ml of DMEM with high glucose, GlutaMAX, HEPES, or RPMI 1640 with Penicillin-Streptomycin (ThermoFisher™, 10564029, 11875119 and 15140122) and 10% FBS. Cells were incubated overnight at 37° C. in 5% CO2. Then 1 mL of fresh media was added with DMSO, OGM, or positive control (Erastin; APExBIO Technology, LLC, B1524) and cells incubated for 3 days. On the third day, all media was removed, cells were rinsed with 1×PBS, PBS was removed, and 200 μL of 1× Passive Lysis Buffer (Promega™, E1941) was added to each well. […]. Subsequently, 20 μL of lysate was added to 100 μL CellTiter-Glo™ reagent on a LUMITRAC 200 plate (Greiner™ bio-one, 82050-726). Plates were briefly spun down and read on a GloMax-Multi Detection System (Promega™).
The cells listed in the tables above were incubated with OGM2 at 2 μM or 10 μM for 72 hours under standard cell culture conditions, and relative cell number was assessed using Cell Titer-Glo Luminescent Cell Viability Assay (Promega™) following the manufacturer's instructions. Luminescence was determined using a Cytation 5 reader and Gen5 software package (BioTek™). RNA expression of GPR68 and GPR4 in the corresponding cancer cell lines are listed, according to the publicly available The Human Protein Atlas version 22.0 and Ensembl version 103.38 (see proteinatlas.org). The consensus normalized expression value (“nTPM”=normalize transcript per million) was calculated as the maximum nTPM value for each gene in the two data sources.
A general note: ATP-based viability assays read luminescence as a measure of living cells.

The next experiment has as its system U138. The experiment is described as follows: 2D cell growth/viability. The class given is cell-based, human. As for the experimental part: (§1) GBM neurospheres and low passage PDX models were plated in 96-well plates at 10,000 cells per well in 50 μL of neural stem cell media. The next day, the cells were treated with OGM2 compounds at the indicated concentrations, in triplicates, by adding an equal volume of medium containing 2× the final concentration of compound. Following 72 hours incubation under standard cell culture conditions, relative cell number was assessed using Cell Titer-Glo Luminescent Cell Viability Assay (Promega™) following the manufacturer's instructions. Luminescence was determined using a Cytation 5 reader and Gen5 software package (BioTek™). For U87 and U138 cell lines, one thousand cells were plated per well in a standard 96-well plate and allowed to attach for 24 hours before exposure to concentrations of vehicle, OGM2, or TMZ. Cells were treated for 72 hours and then stained with DAPI. A 10× magnification lens on a LionheartFX (BioTek™) was used to image the wells, and images were stitched together with Gen5 software (BioTek™). Automated nuclei counting was also done using the Gen5 software. Results reported as percent response relative to DMSO control. IC50 (the concentration causing 50% inhibition) was determined by GraphPad Prism™ version 6.07.
(§2) Temozolomide is the standard of care for glioblastoma but only works on 30% of patients. […]

Experiment [1] has as its system U87. The experiment is described as follows: 2D cell growth/viability. It is filed as cell-based, human. Particulars: 72 hours. As for the experimental part:
as §1, §2

The test system of experiment [2] is U87. Kind of experiment: Western blot (TFRC, HO-1, cleaved caspase 3). The class given is cell-based, human. As for the experimental part:
Using Pierce™ BCA Protein Assay Kit (ThermoFisher Scientific™), protein concentrations were determined for each sample following manufacturing protocol. Gel electrophoresis was conducted on NuPAGE™ 4-12% Bis-Tris gels (Invitrogen™) using 20 ug of total protein per sample. Proteins were transferred to PVDF membranes by semi-dry transfer. Membranes were blocked using Intercept® (PBS) Blocking Buffer (LI-COR™) for one hour at room temperature on a tilting shaker. Primary antibodies in 5% non-fat dry milk were added to the membranes for overnight incubation at 4° C. on a rotating shaker. Primary antibodies included transferrin receptor (TFRC), heme-oxygenase 1 (HO-1), and cleaved caspase 3 with GAPDH and α-tubulin used as normalization controls. The next day, membranes were washed in three, five-minute intervals with PBST (Tween 0.5%). Corresponding secondary HRP-conjugated antibodies in 5% non-fat dry milk were added to incubate at room temperature for one hour on a tilting shaker. The membranes were washed with PBST in four, five-minute intervals before protein visualization using Radiance Q (Azure Biosystems™) on Bio-Rad™ ChemiDoc™ MP Imaging System. Protein quantification was completed in triplicate using Fiji software package.
In general terms: In western blotting, separated proteins are transferred to a membrane and probed.

T4 sequence (P21554 whole entry, species assumed): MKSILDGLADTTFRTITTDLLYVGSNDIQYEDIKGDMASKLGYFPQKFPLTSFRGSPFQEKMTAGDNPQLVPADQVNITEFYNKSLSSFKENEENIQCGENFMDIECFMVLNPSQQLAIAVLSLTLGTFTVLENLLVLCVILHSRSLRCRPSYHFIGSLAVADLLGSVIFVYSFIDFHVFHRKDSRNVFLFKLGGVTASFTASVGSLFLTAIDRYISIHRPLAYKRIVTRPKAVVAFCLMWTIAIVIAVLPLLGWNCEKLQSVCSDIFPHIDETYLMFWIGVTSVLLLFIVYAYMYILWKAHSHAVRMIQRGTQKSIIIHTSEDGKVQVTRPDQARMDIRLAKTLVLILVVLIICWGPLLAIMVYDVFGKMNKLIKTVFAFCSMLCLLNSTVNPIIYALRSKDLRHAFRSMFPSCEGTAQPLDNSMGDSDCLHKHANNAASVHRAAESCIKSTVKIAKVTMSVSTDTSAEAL
T5 sequence (P21917 whole entry): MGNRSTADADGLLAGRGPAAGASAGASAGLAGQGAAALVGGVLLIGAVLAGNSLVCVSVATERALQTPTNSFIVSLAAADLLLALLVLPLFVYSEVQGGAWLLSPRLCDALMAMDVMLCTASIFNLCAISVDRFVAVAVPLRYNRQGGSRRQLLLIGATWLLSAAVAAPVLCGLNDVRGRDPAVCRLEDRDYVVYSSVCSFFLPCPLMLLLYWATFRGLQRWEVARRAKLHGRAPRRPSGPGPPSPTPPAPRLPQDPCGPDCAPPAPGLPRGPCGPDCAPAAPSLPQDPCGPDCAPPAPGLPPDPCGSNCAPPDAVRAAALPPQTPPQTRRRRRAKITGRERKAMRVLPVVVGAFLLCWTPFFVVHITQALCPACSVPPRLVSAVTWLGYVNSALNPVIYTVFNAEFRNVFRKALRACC
Sequence of CIT (O14578 whole entry): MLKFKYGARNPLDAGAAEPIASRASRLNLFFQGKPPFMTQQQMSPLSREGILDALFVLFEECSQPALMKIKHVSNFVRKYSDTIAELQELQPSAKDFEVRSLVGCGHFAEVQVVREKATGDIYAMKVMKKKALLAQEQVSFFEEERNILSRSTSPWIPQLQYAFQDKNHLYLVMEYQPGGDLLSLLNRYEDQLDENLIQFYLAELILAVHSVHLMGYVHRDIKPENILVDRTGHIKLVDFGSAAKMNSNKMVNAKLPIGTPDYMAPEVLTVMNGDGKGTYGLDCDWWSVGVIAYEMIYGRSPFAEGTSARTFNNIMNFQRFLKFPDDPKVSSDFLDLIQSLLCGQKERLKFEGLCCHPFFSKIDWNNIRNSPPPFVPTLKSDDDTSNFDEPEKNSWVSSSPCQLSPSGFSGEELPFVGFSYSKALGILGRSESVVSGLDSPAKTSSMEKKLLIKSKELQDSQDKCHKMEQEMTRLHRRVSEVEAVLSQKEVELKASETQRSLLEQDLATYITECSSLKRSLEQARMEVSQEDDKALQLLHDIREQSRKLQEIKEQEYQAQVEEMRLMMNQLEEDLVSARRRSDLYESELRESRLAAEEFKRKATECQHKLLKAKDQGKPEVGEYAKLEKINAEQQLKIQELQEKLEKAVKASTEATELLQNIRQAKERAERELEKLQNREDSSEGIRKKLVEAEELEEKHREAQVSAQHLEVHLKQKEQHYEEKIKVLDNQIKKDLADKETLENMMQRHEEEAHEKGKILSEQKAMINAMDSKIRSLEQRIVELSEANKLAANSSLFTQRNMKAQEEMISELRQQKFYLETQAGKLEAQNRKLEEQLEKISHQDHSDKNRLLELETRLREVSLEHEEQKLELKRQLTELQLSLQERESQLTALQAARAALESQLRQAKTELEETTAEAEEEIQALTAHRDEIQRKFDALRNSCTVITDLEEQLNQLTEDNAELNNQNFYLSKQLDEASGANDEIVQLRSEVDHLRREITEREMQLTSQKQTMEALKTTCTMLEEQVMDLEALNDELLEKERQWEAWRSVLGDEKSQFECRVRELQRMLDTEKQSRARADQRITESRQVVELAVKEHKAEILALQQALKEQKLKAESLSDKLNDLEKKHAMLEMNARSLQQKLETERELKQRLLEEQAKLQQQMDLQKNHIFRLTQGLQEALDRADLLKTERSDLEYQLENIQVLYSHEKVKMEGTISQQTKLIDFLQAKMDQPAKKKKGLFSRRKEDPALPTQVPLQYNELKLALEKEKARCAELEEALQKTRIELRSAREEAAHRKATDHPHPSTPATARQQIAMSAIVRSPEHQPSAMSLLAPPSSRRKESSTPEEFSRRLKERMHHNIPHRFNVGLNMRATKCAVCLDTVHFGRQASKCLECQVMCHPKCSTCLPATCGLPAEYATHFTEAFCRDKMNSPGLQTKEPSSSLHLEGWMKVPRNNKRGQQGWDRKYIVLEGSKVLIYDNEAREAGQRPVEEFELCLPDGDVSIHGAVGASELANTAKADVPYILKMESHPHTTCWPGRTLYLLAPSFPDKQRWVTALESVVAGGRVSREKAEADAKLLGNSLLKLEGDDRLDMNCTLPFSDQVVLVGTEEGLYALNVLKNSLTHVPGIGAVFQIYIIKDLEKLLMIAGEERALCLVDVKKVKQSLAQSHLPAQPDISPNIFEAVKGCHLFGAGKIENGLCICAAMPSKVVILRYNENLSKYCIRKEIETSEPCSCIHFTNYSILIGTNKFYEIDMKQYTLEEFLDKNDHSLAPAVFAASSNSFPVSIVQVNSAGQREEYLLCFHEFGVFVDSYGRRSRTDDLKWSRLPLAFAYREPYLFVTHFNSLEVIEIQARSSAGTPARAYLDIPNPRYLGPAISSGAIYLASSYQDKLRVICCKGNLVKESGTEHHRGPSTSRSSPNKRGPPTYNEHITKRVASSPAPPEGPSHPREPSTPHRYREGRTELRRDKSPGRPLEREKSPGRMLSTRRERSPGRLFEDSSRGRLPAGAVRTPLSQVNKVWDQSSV
T1 sequence (P00533 with tags, fused parts or gaps DEL746-750): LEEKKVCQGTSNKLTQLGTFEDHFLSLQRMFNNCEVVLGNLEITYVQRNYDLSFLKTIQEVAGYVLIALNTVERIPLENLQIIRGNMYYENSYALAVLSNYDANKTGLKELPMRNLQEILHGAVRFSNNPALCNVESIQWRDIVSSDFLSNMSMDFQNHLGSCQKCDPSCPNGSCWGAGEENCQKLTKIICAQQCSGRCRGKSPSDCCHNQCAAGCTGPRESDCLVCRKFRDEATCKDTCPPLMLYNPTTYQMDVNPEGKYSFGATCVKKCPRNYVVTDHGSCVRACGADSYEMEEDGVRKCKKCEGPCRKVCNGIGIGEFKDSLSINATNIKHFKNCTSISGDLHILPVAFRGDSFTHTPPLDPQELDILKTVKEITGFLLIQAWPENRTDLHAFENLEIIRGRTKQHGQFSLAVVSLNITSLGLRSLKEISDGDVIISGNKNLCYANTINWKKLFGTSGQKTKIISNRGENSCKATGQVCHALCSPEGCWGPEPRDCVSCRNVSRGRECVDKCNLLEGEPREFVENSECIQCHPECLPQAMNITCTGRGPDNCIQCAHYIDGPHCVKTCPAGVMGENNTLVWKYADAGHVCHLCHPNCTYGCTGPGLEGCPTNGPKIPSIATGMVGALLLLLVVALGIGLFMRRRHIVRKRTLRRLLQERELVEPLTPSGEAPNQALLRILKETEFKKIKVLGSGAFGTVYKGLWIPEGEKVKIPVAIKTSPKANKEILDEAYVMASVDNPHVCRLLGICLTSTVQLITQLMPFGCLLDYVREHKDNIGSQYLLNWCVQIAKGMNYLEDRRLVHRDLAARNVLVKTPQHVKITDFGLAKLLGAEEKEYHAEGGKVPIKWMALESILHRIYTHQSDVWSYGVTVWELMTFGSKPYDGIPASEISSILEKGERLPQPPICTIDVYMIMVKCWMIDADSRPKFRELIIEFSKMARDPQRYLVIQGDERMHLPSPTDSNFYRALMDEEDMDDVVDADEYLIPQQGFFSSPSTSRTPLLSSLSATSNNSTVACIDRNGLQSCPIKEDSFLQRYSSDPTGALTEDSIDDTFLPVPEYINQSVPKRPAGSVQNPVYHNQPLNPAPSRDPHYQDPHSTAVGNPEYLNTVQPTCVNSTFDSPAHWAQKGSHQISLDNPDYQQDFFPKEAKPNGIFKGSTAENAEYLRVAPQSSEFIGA
T2 sequence (P00533 with tags, fused parts or gaps DEL752-759 limits assumed): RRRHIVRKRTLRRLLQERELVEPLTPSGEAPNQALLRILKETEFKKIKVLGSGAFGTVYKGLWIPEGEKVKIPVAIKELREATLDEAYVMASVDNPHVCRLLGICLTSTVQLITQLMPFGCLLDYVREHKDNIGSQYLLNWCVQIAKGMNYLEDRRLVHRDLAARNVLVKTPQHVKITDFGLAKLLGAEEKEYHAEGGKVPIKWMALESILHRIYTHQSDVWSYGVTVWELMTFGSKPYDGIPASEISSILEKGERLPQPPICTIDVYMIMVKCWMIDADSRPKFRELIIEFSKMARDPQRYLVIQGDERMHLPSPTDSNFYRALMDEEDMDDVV
T3 sequence (P32298 whole entry): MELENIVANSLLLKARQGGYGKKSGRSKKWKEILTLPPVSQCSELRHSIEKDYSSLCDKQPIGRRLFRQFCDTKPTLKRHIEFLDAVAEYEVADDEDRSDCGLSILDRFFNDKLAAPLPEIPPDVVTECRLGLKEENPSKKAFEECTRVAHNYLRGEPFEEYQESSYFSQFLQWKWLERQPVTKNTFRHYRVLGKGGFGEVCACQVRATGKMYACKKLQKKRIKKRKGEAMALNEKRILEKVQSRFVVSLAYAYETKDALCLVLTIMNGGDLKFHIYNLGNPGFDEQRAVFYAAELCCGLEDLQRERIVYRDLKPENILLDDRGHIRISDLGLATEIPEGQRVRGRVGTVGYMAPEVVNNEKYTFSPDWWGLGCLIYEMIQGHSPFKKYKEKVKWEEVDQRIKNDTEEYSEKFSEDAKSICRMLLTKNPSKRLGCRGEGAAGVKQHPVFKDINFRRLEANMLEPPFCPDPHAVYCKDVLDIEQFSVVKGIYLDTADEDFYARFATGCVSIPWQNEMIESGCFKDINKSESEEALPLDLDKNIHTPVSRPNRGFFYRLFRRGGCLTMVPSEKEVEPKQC

For `CCc1ccc2c(c1)C1(NN=C(c3cccc4ccccc34)S1)C(=O)N2` (stereo not shown) [OGM1, 5-ethyl-5′-naphthalen-1-ylspiro[1H-indole-3,2′-3H-1,3,4-thiadiazole]-2-one], the remaining binding at 10 µM at CIT turned out to be 94%; at EGFR(E746-A750del) it was 100%; at EGFR(S752-1759del), 91%; at GRK4, 96%. Also, the results for the Antagonism at CB1 (10 uM) and on D4 (10 uM) were −6.8 and −16.3, respectively. Also, the values for the Agonism on CB1 (12.5 uM) and at D4 (12.5 uM) were −0.1 and 0.6, respectively.

Turning to `CCc1ccc2c(c1)C1(NN=C(c3ccccc3)S1)C(=O)N2` (stereo not shown) [OGM2], the Class result in the experiment with WM-115 is “Sensitive (Sensitive (LC50=2 to 10 μM))”. In the experiment with WM-115 (72 hours), the “% Survival 2 μM OGM” value is 92.9% and the “% Survival 10 μM OGM” value amounted to 40.7%. For the same compound, the CC50 with WM-115 (Homo sapiens, WM-115, 72 hours, read-out: LC50 (the source's name)) fell in the range of 2 to 10 µM. In addition, the “cell growth in 2D culture” value with U138 is recorded as “caused dose-dependent inhibition of U138 cell growth”. The “cell growth, comparison with Temozolomide” value with U87 [1] is on record as “more potent inhibitor of U87 cell growth in 2D cell assay than Temozolomide”. Moreover, in the experiment with U87 [2], the “cleaved caspase 3 level” value is given as “did not increase”; the “protein levels of TFRC and HO-1” value is listed as “significantly increased”.
